# In patent US20030088061A1, “Materials and methods to modulate ligand binding/enzymatic activity of alpha/beta proteins containing an allosteric regulatory site” (priority 2000, published 2003):
# Key:
# α4β7 = target: T1, α4β7 (Homo sapiens, UniProt P13612+P26010); assay: JY/α4β7 cell adhesion to MAdCAM-1/Ig; assay type: cell-based; details: PMA-treated JY cells
# T1 construct: endogenous in cells; host or cells: JY cells
# Protocol: (§1) To assess the selectivity of each compound, an IC50 value was determined for additional binding partner compounds JY/αVβ3 and vitronectin, JY/α4β1 and VCAM/Ig, JY/αdβ2 and VCAM, JY/[…] and ICAM-1, JY/αMβ2 and iC3b, and JY/α4β7 and MAdCAM-1.
# (§2) For each IC50 assay, 50 μl of the ligand diluted in 50 mM bicarbonate buffer (pH 9.6) was dispensed per well of an Immulon-4 plate. A single plate was used to test two different ligands, each in triplicate, The coating concentration for the various ligands was as follows: VCAM-1/Ig at 2.0 μg/ml; ICAM-1/Ig at 5.0 μg/ml; vitronectin at 0.5 μg/ml; MAdCAM-1/Ig at 3.0 μg/ml, and iC3b at 5.0 μg/ml. The capture antibody, e.g. anti-CD18 monoclonal antibody TS1/22, was added at a concentration of 10 μg/ml in 50 μl/well. Ligand-coated plates were covered and stored overnight at 4° C. The following day, the contents of each well was decanted, and each plate was washed three times with 200 μl/well D-PBS. The plate was then blocked by the addition of 300 μl/well of 1% BSA/D-PBS solution. Each plate was again covered and incubated at room temperature for at least 1 hour.
# (§3) Prior to transfer to the adhesion plate, the compounds were initially diluted by transferring 4.2 μl of the diluted compounds to a 96-well deepwell titer plate containing 0.7 ml/well of RPMI 1640, 0.1% BSA, and 3 ng/ml PMA (Sigma Corp., St. Louis, Mo.) pre-warmed to 37° C. The 1% BSA/D-PBS blocking solution was decanted from the 96-well Immulon-4 plates and replaced with 0.2 ml of diluted compound. For each 96-well plate to be screened, approximately 8×10^6 cells were collected by centrifugation and resuspended in adhesion media (RPMI 1640 containing 0.1% BSA) to a final concentration of 10^6/ml. To prevent PMA-dependent homotypic aggregation in the adhesion assay, the anti-CD18 antibody 22F12C (ICOS Corp., Bothell, Wash.) was added to the cell suspensions to a final concentration of 10 μg/ml, and the cells were incubated at 37° C. for 15 min. This antibody was not added to CD18-dependent adhesion assays involving JY/αLβ2, JY/αdβ2 or JY/αMβ2 and their corresponding ligands ICAM-1, VCAM-1, or iC3b.
# (§4) The adhesion assay was initiated by addition of 100 μl of the cell suspension to each well of the Immulon-4 plate. […] Adherent cells were quantitated by determining the absorbance at 570 nm in a plate spectrophotometer. The percentage of cell binding was determined by using the mean values for each triplicate in a given assay and the formula below. […]
# (§5) The four compounds Cmpd K, Cmpd W, Cmpd Z, Cmpd D identified in the primary screen were selected for further specificity profiling, whereby their IC50 values were determined in additional integrin-dependent adhesive events. […]
# αLβ2 = target: T2, αLβ2 (Homo sapiens, UniProt P05107+P20701); assay: JY/αLβ2 cell adhesion to ICAM-1/Ig; assay type: cell-based; details: PMA-treated JY cells
# T2 construct: endogenous in cells; host or cells: JY cells
# T2 sequence (P20701 26-1170): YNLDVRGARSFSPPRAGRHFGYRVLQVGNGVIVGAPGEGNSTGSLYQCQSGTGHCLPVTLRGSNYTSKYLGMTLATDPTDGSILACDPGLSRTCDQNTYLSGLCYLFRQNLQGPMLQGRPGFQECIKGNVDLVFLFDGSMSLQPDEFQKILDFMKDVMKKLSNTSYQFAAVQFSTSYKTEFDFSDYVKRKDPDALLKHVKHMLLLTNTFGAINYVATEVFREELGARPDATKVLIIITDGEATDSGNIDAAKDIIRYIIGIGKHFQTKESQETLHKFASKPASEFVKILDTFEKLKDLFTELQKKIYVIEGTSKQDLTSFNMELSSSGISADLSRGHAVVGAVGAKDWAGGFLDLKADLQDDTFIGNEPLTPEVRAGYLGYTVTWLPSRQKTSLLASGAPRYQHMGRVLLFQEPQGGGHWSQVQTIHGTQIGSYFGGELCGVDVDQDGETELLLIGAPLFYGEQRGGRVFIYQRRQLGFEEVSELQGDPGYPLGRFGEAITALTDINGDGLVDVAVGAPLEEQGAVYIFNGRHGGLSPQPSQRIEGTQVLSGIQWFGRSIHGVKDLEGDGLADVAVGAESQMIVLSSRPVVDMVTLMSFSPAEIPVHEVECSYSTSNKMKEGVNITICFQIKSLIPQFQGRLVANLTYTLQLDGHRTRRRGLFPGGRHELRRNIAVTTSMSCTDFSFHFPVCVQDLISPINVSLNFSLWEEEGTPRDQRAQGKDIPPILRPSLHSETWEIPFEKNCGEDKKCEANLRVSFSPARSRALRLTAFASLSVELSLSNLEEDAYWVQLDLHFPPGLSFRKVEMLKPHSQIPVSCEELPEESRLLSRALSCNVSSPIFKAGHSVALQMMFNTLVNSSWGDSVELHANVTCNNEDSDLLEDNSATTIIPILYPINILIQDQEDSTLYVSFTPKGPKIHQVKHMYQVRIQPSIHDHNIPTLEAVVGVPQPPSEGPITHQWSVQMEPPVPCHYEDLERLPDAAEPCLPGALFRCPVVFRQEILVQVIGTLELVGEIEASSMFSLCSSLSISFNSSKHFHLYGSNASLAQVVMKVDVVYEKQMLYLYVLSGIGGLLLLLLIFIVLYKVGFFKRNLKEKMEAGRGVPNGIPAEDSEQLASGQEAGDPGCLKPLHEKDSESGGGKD
# T2 sequence (P05107 23-769 partner): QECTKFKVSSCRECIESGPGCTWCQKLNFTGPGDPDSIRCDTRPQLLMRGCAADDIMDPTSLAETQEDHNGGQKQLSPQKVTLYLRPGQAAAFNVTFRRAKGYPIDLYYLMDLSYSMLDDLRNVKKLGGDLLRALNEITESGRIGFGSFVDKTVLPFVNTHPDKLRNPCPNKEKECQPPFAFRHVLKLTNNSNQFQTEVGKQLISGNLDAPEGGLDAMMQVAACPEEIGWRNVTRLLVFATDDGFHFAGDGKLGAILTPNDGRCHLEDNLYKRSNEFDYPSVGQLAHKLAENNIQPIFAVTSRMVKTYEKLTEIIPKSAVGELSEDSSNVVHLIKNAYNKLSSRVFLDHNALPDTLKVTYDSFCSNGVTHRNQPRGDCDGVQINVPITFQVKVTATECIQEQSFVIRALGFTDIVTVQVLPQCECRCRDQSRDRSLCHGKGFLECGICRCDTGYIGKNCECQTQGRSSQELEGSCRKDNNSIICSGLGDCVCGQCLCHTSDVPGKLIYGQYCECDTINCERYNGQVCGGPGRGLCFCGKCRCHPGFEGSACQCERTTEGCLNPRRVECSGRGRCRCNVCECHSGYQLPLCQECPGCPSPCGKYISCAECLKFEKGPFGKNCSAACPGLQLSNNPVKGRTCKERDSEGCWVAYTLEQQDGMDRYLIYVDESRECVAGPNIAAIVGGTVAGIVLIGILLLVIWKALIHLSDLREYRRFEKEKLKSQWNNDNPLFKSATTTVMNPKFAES
# Protocol: as §1, §2, §3, §4, §5
# T1 sequence (P13612 34-1032): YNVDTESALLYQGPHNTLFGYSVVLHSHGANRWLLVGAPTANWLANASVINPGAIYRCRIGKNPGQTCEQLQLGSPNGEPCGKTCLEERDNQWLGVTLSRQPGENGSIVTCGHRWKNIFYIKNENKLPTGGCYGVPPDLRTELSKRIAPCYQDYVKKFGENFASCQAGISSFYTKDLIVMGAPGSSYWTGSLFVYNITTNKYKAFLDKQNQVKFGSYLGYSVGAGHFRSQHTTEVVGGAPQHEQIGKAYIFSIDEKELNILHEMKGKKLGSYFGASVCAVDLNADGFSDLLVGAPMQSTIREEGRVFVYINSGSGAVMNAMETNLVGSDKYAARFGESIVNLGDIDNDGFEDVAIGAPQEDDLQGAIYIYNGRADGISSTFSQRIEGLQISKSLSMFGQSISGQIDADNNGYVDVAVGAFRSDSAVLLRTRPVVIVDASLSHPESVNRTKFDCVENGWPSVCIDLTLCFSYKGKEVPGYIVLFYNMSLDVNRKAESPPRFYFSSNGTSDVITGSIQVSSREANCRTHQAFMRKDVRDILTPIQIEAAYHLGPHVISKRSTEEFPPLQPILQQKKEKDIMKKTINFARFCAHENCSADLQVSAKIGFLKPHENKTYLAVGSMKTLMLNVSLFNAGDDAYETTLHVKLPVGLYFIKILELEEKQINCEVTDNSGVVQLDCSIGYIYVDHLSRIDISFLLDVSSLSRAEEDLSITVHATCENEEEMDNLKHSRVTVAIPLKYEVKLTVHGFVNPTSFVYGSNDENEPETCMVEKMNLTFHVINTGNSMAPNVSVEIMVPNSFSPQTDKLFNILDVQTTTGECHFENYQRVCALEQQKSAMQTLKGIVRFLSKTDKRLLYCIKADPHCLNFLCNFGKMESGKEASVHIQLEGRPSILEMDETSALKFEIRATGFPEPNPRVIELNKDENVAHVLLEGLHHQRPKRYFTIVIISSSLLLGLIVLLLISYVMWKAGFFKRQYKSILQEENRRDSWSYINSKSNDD
# T1 sequence (P26010 20-798): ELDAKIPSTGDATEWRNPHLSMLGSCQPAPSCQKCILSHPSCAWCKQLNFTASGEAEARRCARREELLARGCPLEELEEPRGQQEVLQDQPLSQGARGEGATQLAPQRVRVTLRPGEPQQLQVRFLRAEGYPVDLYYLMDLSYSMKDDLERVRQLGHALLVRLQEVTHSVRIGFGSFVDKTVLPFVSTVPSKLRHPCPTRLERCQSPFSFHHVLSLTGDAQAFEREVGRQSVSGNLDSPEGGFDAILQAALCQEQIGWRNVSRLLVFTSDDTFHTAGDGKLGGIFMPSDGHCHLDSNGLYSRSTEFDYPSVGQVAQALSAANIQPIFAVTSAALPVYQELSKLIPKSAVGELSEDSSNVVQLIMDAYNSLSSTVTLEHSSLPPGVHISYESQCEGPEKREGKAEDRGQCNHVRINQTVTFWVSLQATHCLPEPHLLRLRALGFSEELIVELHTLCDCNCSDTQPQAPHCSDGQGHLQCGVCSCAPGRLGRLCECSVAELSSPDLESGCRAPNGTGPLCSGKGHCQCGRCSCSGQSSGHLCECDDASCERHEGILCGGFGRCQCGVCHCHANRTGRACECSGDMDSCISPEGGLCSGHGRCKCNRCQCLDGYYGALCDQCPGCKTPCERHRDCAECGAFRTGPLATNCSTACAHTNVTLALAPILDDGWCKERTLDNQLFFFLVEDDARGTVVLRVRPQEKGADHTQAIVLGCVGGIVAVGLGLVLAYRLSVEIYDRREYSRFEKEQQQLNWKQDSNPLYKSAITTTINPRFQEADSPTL
IC50 (α4β7) [µM],IC50 (αLβ2) [µM],Structure (SMILES)
4,28,CC(=O)Oc1ccccc1C(=O)n1c(-c2ccccc2)cc2ccccc21 [Cmpd D]
4,11,O=C(NCc1cccnc1)c1ccccc1C(=O)Nc1sc2ccccc2c1Cl [Cmpd K]
5,30,Nc1ccc(Sc2ccc(NC(=O)CCc3ccccc3)cc2)c(Cl)c1 [Cmpd W]
11,20,CC(CN(C)C)NCc1ccccc1Sc1ccc(C(C)(C)C)cc1 (centres unmarked) [Cmpd Z]
